{"source": "ChEMBL document CHEMBL3868595", "about": "“Plazomicin is effective in a non-human primate pneumonic plague model” (Bioorg Med Chem, 2016)", "key": {"Yersinia pestis [1]": {"system": "Yersinia pestis", "experiment": "(§1) Antibacterial activity against Yersinia pestis Colorado 92 infected in African green monkey B6872 model assessed as bacterial burden in lung at 25 mg/kg, iv administered within 6 hrs post onset of sustained fever as 30 mins infusion for 5 days (reference value: 7.7 10^8CFU/g)", "assay_type": "functional, organism-based", "conditions": "CO92"}, "Yersinia pestis [2]": {"system": "Yersinia pestis", "experiment": "as §1, with “B6873” for “B6872”, “tracheobronchial lymph nodes” for “lung”, “12.5” for “25”, “10^9CFU/g)” for “10^8CFU/g)”", "assay_type": "functional, organism-based", "conditions": "CO92, Lymph node"}, "Yersinia pestis [3]": {"system": "Yersinia pestis", "experiment": "Antibacterial activity against Yersinia pestis Colorado 92 infected in African green monkey B6988 model assessed as bacterial burden in heart at 6.25 mg/kg, iv administered within 6 hrs post onset of sustained fever as 30 mins infusion for 5 days (reference value: 2.6 10^7CFU/g)", "assay_type": "functional, CO92"}, "African green monkey [4]": {"system": "African green monkey", "experiment": "Toxicity in African green monkey 7653 model infected with Yersinia pestis Colorado 92 assessed as blood urea nitrogen level at 25 mg/kg, iv administered within 6 hrs post onset of sustained fever as 30 mins infusion for 10 days (reference value: 22 mg/dl)", "assay_type": "organism-based", "conditions": "chlorocebus sabaeus, in vivo"}, "African green monkey [5]": {"system": "African green monkey", "experiment": "Toxicity in African green monkey B6127 model infected with Yersinia pestis Colorado 92 assessed as weight loss at 25 mg/kg, iv administered within 6 hrs post onset of sustained fever as 30 mins infusion for 10 days measured from day 7 to 14 post dose", "assay_type": "organism-based", "conditions": "chlorocebus sabaeus, in vivo"}, "African green monkey [6]": {"system": "African green monkey", "experiment": "Toxicity in African green monkey 7653 model infected with Yersinia pestis Colorado 92 assessed as serum alanine aminotransferase level at 25 mg/kg, iv administered within 6 hrs post onset of sustained fever as 30 mins infusion for 10 days (reference value: 50 IU/L)", "assay_type": "organism-based", "conditions": "chlorocebus sabaeus, in vivo"}, "African green monkey [7]": {"system": "African green monkey", "experiment": "Toxicity in African green monkey B6291 model infected with Yersinia pestis Colorado 92 assessed as serum alanine aminotransferase level at 25 mg/kg, iv administered within 6 hrs post onset of sustained fever as 30 mins infusion for 10 days (reference value: 47 IU/L)", "assay_type": "organism-based", "conditions": "chlorocebus sabaeus, in vivo"}, "Yersinia pestis [8]": {"system": "Yersinia pestis", "experiment": "Antibacterial activity against Yersinia pestis Colorado 92 infected in African green monkey B6672 model assessed as bacterial burden in lung at 12.5 mg/kg, iv administered within 6 hrs post onset of sustained fever as 30 mins infusion for 5 days (reference value: 7.7 10^8CFU/g)", "assay_type": "functional, CO92"}, "[9]": {"experiment": "AUC (0 to 24 hrs) in African green monkey blood at 35 mg/kg administered as iv infusion twice daily for 7 consecutive days measured on day 1 by LC-MS/MS analysis", "assay_type": "ADME, organism-based", "set-up": "dose 35 mg/kg, time < 24 hr, route intravenous", "conditions": "chlorocebus aethiops"}, "African green monkey [10]": {"system": "African green monkey", "experiment": "Toxicity in African green monkey B6408 model infected with Yersinia pestis Colorado 92 assessed as serum creatinine level at 25 mg/kg, iv administered within 6 hrs post onset of sustained fever as 30 mins infusion for 10 days (reference value: 0.5 mg/dl)", "assay_type": "organism-based", "conditions": "chlorocebus sabaeus, in vivo"}, "Yersinia pestis [11]": {"system": "Yersinia pestis", "experiment": "Antibacterial activity against Yersinia pestis Colorado 92 infected in African green monkey C2083 model assessed as bacterial burden in spleen at 12.5 mg/kg, iv administered within 6 hrs post onset of sustained fever as 30 mins infusion for 5 days (reference value: 1.6 10^9CFU/g)", "assay_type": "functional, CO92"}, "Yersinia pestis [12]": {"system": "Yersinia pestis", "experiment": "Antibacterial activity against Yersinia pestis Colorado 92 infected in African green monkey assessed as survival of monkey at 12.5 mg/kg, iv administered within 6 hrs post onset of sustained fever as 30 mins infusion for 5 days", "assay_type": "functional", "conditions": "CO92, iv"}, "African green monkey [13]": {"system": "African green monkey", "experiment": "Toxicity in African green monkey 7972 model infected with Yersinia pestis Colorado 92 assessed as serum alanine aminotransferase level at 25 mg/kg, iv administered within 6 hrs post onset of sustained fever as 30 mins infusion for 10 days (reference value: 30 IU/L)", "assay_type": "organism-based", "conditions": "chlorocebus sabaeus, in vivo"}, "Yersinia pestis [14]": {"system": "Yersinia pestis", "experiment": "(§2) Antibacterial activity against Yersinia pestis Colorado 92 infected in African green monkey B6889 model assessed as bacterial burden in lung at 6.25 mg/kg, iv administered within 6 hrs post onset of sustained fever as 30 mins infusion for 5 days (reference value: 7.7 10^8CFU/g)", "assay_type": "functional, CO92"}, "Yersinia pestis [15]": {"system": "Yersinia pestis", "experiment": "Antibacterial activity against Yersinia pestis Colorado 92 infected in African green monkey B6988 model assessed as bacterial burden in lung at 6.25 mg/kg, iv administered within 6 hrs post onset of sustained fever as 30 mins infusion for 5 days (reference value: 7.7 10^8CFU/g)", "assay_type": "functional, CO92"}, "African green monkey [16]": {"system": "African green monkey", "experiment": "Toxicity in African green monkey 7643 model infected with Yersinia pestis Colorado 92 assessed as serum creatinine level at 25 mg/kg, iv administered within 6 hrs post onset of sustained fever as 30 mins infusion for 10 days (reference value: 0.5 mg/dl)", "assay_type": "organism-based", "conditions": "chlorocebus sabaeus, in vivo"}, "African green monkey [17]": {"system": "African green monkey", "experiment": "Toxicity in African green monkey 7653 model infected with Yersinia pestis Colorado 92 assessed as serum lactate dehydrogenase level at 25 mg/kg, iv administered within 6 hrs post onset of sustained fever as 30 mins infusion for 10 days (reference value: 319 IU/L)", "assay_type": "organism-based", "conditions": "chlorocebus sabaeus, in vivo"}, "African green monkey [18]": {"system": "African green monkey", "experiment": "Toxicity in African green monkey assessed as effect on serum creatinine level at 35 mg/kg administered as iv infusion twice daily for 7 consecutive days measured on day 1 by LC-MS/MS analysis", "assay_type": "organism-based", "conditions": "chlorocebus sabaeus, in vivo"}, "Yersinia pestis [19]": {"system": "Yersinia pestis", "experiment": "Antibacterial activity against Yersinia pestis Colorado 92 infected in African green monkey assessed as improvement in survival of monkey at 6.25 to 25 mg/kg, iv administered within 6 hrs post onset of sustained fever as 30 mins infusion for 10 days", "assay_type": "functional, organism-based", "conditions": "CO92"}, "Yersinia pestis [20]": {"system": "Yersinia pestis", "experiment": "as §2, with “tracheobronchial lymph nodes” for “lung”, “10^9CFU/g)” for “10^8CFU/g)”", "assay_type": "functional, CO92, Lymph node"}, "African green monkey [21]": {"system": "African green monkey", "experiment": "Toxicity in African green monkey B6291 model infected with Yersinia pestis Colorado 92 assessed as blood urea nitrogen level at 25 mg/kg, iv administered within 6 hrs post onset of sustained fever as 30 mins infusion for 10 days (reference value: 24 mg/dl)", "assay_type": "organism-based", "conditions": "chlorocebus sabaeus, in vivo"}, "Yersinia pestis [22]": {"system": "Yersinia pestis", "experiment": "as §2, with “monkey 8047” for “monkey B6889”, “in tracheobronchial lymph nodes” for “in lung”, “for 10” for “for 5”, “7.7 10^9CFU/g)” for “7.7 10^8CFU/g)”", "assay_type": "functional, CO92, Lymph node"}, "African green monkey [23]": {"system": "African green monkey", "experiment": "Toxicity in African green monkey 8067 model infected with Yersinia pestis Colorado 92 assessed as serum lactate dehydrogenase level at 25 mg/kg, iv administered within 6 hrs post onset of sustained fever as 30 mins infusion for 10 days (reference value: 287 IU/L)", "assay_type": "organism-based", "conditions": "chlorocebus sabaeus, in vivo"}, "Yersinia pestis [24]": {"system": "Yersinia pestis", "experiment": "Antibacterial activity against Yersinia pestis Colorado 92 infected in African green monkey B6988 model assessed as bacterial burden in liver at 6.25 mg/kg, iv administered within 6 hrs post onset of sustained fever as 30 mins infusion for 5 days (reference value: 5.2 10^8CFU/g)", "assay_type": "functional, CO92"}, "Yersinia pestis [25]": {"system": "Yersinia pestis", "experiment": "Antibacterial activity against Yersinia pestis Colorado 92 infected in African green monkey B6106 model assessed as bacterial burden in spleen at 25 mg/kg, iv administered within 6 hrs post onset of sustained fever as 30 mins infusion for 5 days (reference value: 1.6 10^9CFU/g)", "assay_type": "functional, CO92"}, "Yersinia pestis [26]": {"system": "Yersinia pestis", "experiment": "Antibacterial activity against Yersinia pestis Colorado 92 infected in African green monkey B6889 model assessed as bacterial burden in liver at 6.25 mg/kg, iv administered within 6 hrs post onset of sustained fever as 30 mins infusion for 5 days (reference value: 5.2 10^8CFU/g)", "assay_type": "functional, CO92"}, "African green monkey [27]": {"system": "African green monkey", "experiment": "Toxicity in African green monkey 7972 model infected with Yersinia pestis Colorado 92 assessed as serum gamma glutamyl-transferase level at 25 mg/kg, iv administered within 6 hrs post onset of sustained fever as 30 mins infusion for 10 days (reference value: 46 IU/L)", "assay_type": "organism-based", "conditions": "chlorocebus sabaeus, in vivo"}}, "note": "Active and inactive are the calls of the source. The rule behind the calls is not given here."}
{"smiles": "CN[C@@H]1[C@@H](O)[C@@H](O[C@@H]2[C@@H](O)[C@H](O[C@H]3OC(CNCCO)=CC[C@H]3N)[C@@H](N)C[C@H]2NC(=O)[C@@H](O)CCN)OC[C@]1(C)O", "note": "[PLAZOMICIN]", "values": [{"measurement": "Activity", "setting": "Yersinia pestis [1]", "result": "Below limit of detection"}, {"measurement": "Activity", "setting": "Yersinia pestis [2]", "result": "Below limit of detection"}, {"measurement": "Activity", "setting": "Yersinia pestis [3]", "result": 4.5, "unit": "×10⁶ CFU/g"}, {"measurement": "Activity", "setting": "African green monkey [4]", "result": 26, "unit": "mg/dL"}, {"measurement": "Activity", "setting": "African green monkey [5]", "result": "Toxic"}, {"measurement": "Activity", "setting": "African green monkey [6]", "result": 48, "unit": "IU/L"}, {"measurement": "Activity", "setting": "African green monkey [7]", "result": 68, "unit": "IU/L"}, {"measurement": "Activity", "setting": "Yersinia pestis [8]", "result": 9.2, "unit": "×10⁹ CFU/g"}, {"measurement": "AUC(0-t) at 24 h", "setting": "[9]", "result": 306, "unit": "µg·h/mL"}, {"measurement": "Activity", "setting": "African green monkey [10]", "result": 0.4, "unit": "mg/dL"}, {"measurement": "Activity", "setting": "Yersinia pestis [11]", "result": 1.5, "unit": "×10⁷ CFU/g"}, {"measurement": "survival at 12.5 mg/kg", "setting": "Yersinia pestis [12]", "result": 33, "unit": "%"}, {"measurement": "Activity", "setting": "African green monkey [13]", "result": 36, "unit": "IU/L"}, {"measurement": "Activity", "setting": "Yersinia pestis [14]", "result": 2.2, "unit": "×10⁹ CFU/g"}, {"measurement": "Activity", "setting": "Yersinia pestis [15]", "result": 3.2, "unit": "×10⁸ CFU/g"}, {"measurement": "Activity", "setting": "African green monkey [16]", "result": 0.4, "unit": "mg/dL"}, {"measurement": "Activity", "setting": "African green monkey [17]", "result": 426, "unit": "IU/L"}, {"measurement": "Activity", "setting": "African green monkey [18]", "result": 0.6, "unit": "mg/dL"}, {"measurement": "Activity", "setting": "Yersinia pestis [19]", "result": "Active"}, {"measurement": "Activity", "setting": "Yersinia pestis [20]", "result": 3.6, "unit": "×10⁹ CFU/g"}, {"measurement": "Activity", "setting": "African green monkey [21]", "result": 21, "unit": "mg/dL"}, {"measurement": "Activity", "setting": "Yersinia pestis [22]", "result": 2, "unit": "×10⁹ CFU/g"}, {"measurement": "Activity", "setting": "African green monkey [23]", "result": 478, "unit": "IU/L"}, {"measurement": "Activity", "setting": "Yersinia pestis [24]", "result": 17, "unit": "CFU/g"}, {"measurement": "Activity", "setting": "Yersinia pestis [25]", "result": 31, "unit": "CFU/g"}, {"measurement": "Activity", "setting": "Yersinia pestis [26]", "result": 2.2, "unit": "×10⁷ CFU/g"}, {"measurement": "Activity", "setting": "African green monkey [27]", "result": 38, "unit": "IU/L"}]}
